Assays:
[1] = test system: AtTHIC promoter and AtTHIC 3' UTR (TPP riboswitch); experiment: Dual reporter assay (RFP under AtTHIC promoter, YFP fused to AtTHIC 3' UTR) with exogenous TPP; assay type: in vivo, Arabidopsis
Experimental: Arabidopsis thaliana plants (ecotype Columbia, Col-0) were grown on soil in climate rooms (22° C.; 70% humidity; 16/8 hr light/dark for long day conditions and 10/14 hr light/dark for short day conditions). The Atthi1 and Atthic mutants were obtained from the European Arabidopsis Stock Center (NASC; http://arabidopsis.info/; stock ID: N3375; salk—011114 respectively). For experiments involving TPP addition, plants were grown for 14 days in petri dishes on MS media (basal salt mixture; Duchefa, Haarlem, The Netherlands) with 1% sucrose and 1% agar, to which TPP (Sigma, Cat. no. C8754, water soluble) was added up to the indicated concentration.
In order to determine whether the diurnal changes of AtTHIC expression are caused by the light or by the circadian clock, Arabidopsis plants were subjected to a circadian assay (see material and methods above). […] In the growth conditions used herein, the transcripts reached their highest expression level at the beginning of the dark period and their lowest expression level shortly after the beginning of the light period. […] To separate between these two modes of gene control, a dual reporter assay was developed, allowing observing the in vivo activity of both elements. Expression of one reporter gene, YELLOW FLUORESCENT PROTEIN(YFP) was under the control of a constitutive promoter (CaMV-35S) and fused to the AtTHIC 3′ UTR. A second reporter gene, RED FLUORESCENT PROTEIN(RFP) was placed under the regulation of the native AtTHIC promoter and fused to the NOS terminator (FIG. 4). These two reporters were introduced into the Arabidopsis wild type (wt) and thi1 mutant (deficient in thiamine biosynthesis), and their expression was monitored under various conditions. Wild type plants harboring this double reporter genes system were subjected to a circadian assay.
The expression level of the above-described reporter genes (YFP and RFP) in fully grown plants was also determined. […]

[2] = test system: thiamine biosynthetic enzymes; conditions: Reddick et al., 2001; cited from earlier work
AtTHIC gene = experiment: AtTHIC transcript levels (qPCR) under bacimethrin treatment in wt, upf1 and upf3 plants; assay type: in vivo, Arabidopsis; conditions: 1 mM bacimethrin
Experimental: Quantitative Real Time PCR (qPCR) gene expression analysis was performed with three biological replicates using gene/variant-specific qPCR oligonucleotide-pairs, designed with Primer Express software (Applied Biosystems). AtUBIQUITIN C (At5g25760) was used as endogenous control for all analyses. Fixed amount of DNAse-treated total RNA was reverse transcribed using AMV Reverse Transcriptase (EurX Ltd., Poland). RT-PCR reactions were tracked on an ABI 7300 instrument (Applied Biosystems) using the PlatinumR SYBR SuperMix (Invitrogen). Each sample was PCR-amplified from the same amount of cDNA template in triplicate reactions. Following an initial step in the thermal cycler for 10 min at 95° C., PCR amplification proceeded for 40 cycles of 15 s at 95° C. and 60 s at 60° C., and completed by melting curve analysis to confirm specificity of PCR products. The baseline and threshold values were adjusted according to manufacturer's instructions.
Given the importance of the AtTHIC gene for thiamine biosynthesis, its mode of regulation, particularly the nature of the high turnover of the intron-spliced variant compared to the intron-retained variant was further examined. Since the spliced variant contains two introns in its 3′ UTR, its instability could be due to the activity of the non-sense mediated decay (NMD) pathway (Kertesz S et al., 2006. Nucleic Acids Res 34, 6147-6157). Thus, the level of this transcript was measured in the background of upf1 and upf3 mutants of Arabidopsis affected in the NMD pathway (Arciga-Reyes L et al., 2006. Plant J 47, 480-489). Transcript level was examined in both normal and low TPP concentrations (FIG. 9). Lowering the plant endogenous TPP levels in these experiments was obtained using 1 mM bacimethrin, an anti-metabolite that inhibits thiamine production (Reddick et al., 2001; ibid). In wt plants as well as in the upf1 and upf3 mutants, bacimethrin treatment (preventing thiamine accumulation) caused the upregulation of the total AtTHIC transcript and of its intron-retention variant (FIGS. 9A and 9B, respectively). […] Thus, the accumulation of this transcript in the upf mutants can be explained by an increase in its stability since the NMD trans-factors are missing. It should also be noticed, that due to the accumulation of the intron-spliced variant under bacimethrin treatment, the total AtTHIC transcripts are more abundant in the upf mutants.

thiamine biosynthesis = experiment: Bacimethrin treatment of wild type plants, thiamine and TPP levels by HPLC; assay type: in vivo, Arabidopsis; conditions: 1 mM in growth medium, wild type plants (FIG. 26)
Experimental: Bacimethrin is a naturally occurring thiamine anti-metabolite. It is converted to 2′-methoxy-thiamine pyrophosphate by the thiamine biosynthetic enzymes at a rate that is 6 times faster than the rate of conversion of the natural substrate HMP to thiamine pyrophosphate (Reddick J J et al., 2001. Bioorg Med Chem Lett 11, 2245-2248). Since bacimethrin is a thiamine biosynthesis inhibitor in bacteria, its potency in plants was examined.
Samples (100 mg) were harvested from three weeks old plants grown in short day conditions at the end of the light period, and immediately frozen in liquid nitrogen. The plant samples were then grinded followed by the addition of 400 μl of 0.1M HCl, and sonicated in a water bath for 30 min. The resulting extracts were centrifuged at 14,000 rpm (in a regular bench centrifuge) for 10 min. […] Thiochrome derivatives of thiamine, TMP, and TPP were detected by fluorescence at excitation 370 nm and emission 430 nm. Different concentrations of thiamine, thiamine monophosphate (TMP) and thiamine pyrophosphate (TPP) standards were analyzed using the same extraction procedure and chromatographic conditions. […] For quantification of the samples, the peak areas of the samples were compared to the corresponding standard curve.

Compound	RFP expression directed by AtTHIC promoter ([1]; Atthi1 mutant plants)	YFP expression regulated by AtTHIC 3' UTR ([1]; Atthi1 mutant plants)	reporter gene expression (RFP and YFP) ([1]; wt plants with double reporter gene system, increasing TPP concentrations)	rate of conversion to 2'-methoxy-thiamine pyrophosphate relative to conversion of natural substrate HMP to thiamine pyrophosphate [2] [times faster]	AtTHIC intron-spliced variant transcript (AtTHIC gene; upf1 and upf3 mutants (FIG. 9C))	AtTHIC intron-spliced variant transcript (AtTHIC gene; wt plants (FIG. 9C))	total AtTHIC transcript (AtTHIC gene; wt plants and upf1, upf3 mutants (FIG. 9A))	AtTHIC intron-retention variant transcript (AtTHIC gene; wt plants and upf1, upf3 mutants (FIG. 9B))	TPP levels (thiamine biosynthesis)	thiamine levels (thiamine biosynthesis)
Cc1ncc(C[n+]2csc(CCO[P@](=O)(O)OP(=O)(O)O)c2C)c(N)n1 [TPP, thiamine pyrophosphate]	did not respond	regulated YFP expression in a TPP dependent manner	Only slight changes	–	–	–	–	–	–	–
COc1ncc(CO)c(N)n1 [bacimethrin]	–	–	–	6	did not decrease	down-regulation	upregulation	upregulation	reduced	increased
